Values of other authors as cited in patent US11638718B2, “Treatment of alphavirus-induced inflammation” (priority 2016, dated 2023).

Test system: alphavirus
Conditions: earlier studies by the group (refs 30, 55-57); cited from earlier work

CN(Cc1cnc2nc(N)nc(N)c2n1)c1ccc(C(=O)N[C@@H](CCC(=O)O)C(=O)O)cc1 [methotrexate]
effect on alphavirus disease: increased the onset of RRV-induced musculoskeletal disease
